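How tested: cells in 96-well plates exposed to compound for 48 hours at five concentrations. Definition used: TGI = concentration required for complete inhibition of growth.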
Columns and labels:
Assay in all cases: NCI anticancer screen, dose series, 48 h
NCI-H23 lung = test system: NCI-H23 lung
SK-MEL-5 melanoma = test system: SK-MEL-5 melanoma
CAKI-1 renal = test system: CAKI-1 renal
UACC-257 melanoma = test system: UACC-257 melanoma
RXF 393 renal = test system: RXF 393 renal
SN12C renal = test system: SN12C renal
HS 578T breast = test system: HS 578T breast
BT-549 breast = test system: BT-549 breast
A498 renal = test system: A498 renal
OVCAR-5 ovarian = test system: OVCAR-5 ovarian
TK-10 renal = test system: TK-10 renal
OVCAR-3 ovarian = test system: OVCAR-3 ovarian
ACHN renal = test system: ACHN renal
SW-620 colon = test system: SW-620 colon
HCC-2998 colon = test system: HCC-2998 colon
SF-268 CNS = test system: SF-268 CNS
NCI-H460 lung = test system: NCI-H460 lung
HT29 colon = test system: HT29 colon
HOP-62 NSCLC = test system: HOP-62 NSCLC
NCI/ADR-RES ovarian = test system: NCI/ADR-RES ovarian
MDA-MB-231 breast = test system: MDA-MB-231 breast
MALME-3M melanoma = test system: MALME-3M melanoma
MDA-N = test system: MDA-N
NCI-H522 lung = test system: NCI-H522 lung
HCT-15 colon = test system: HCT-15 colon
T-47D breast = test system: T-47D breast
LOX IMVI melanoma = test system: LOX IMVI melanoma
CCRF-CEM leukemia = test system: CCRF-CEM leukemia
IGROV1 ovarian = test system: IGROV1 ovarian
MOLT-4 leukemia = test system: MOLT-4 leukemia
OVCAR-8 ovarian = test system: OVCAR-8 ovarian
COLO 205 colon = test system: COLO 205 colon
PC-3 prostate = test system: PC-3 prostate
786-0 renal = test system: 786-0 renal
M14 melanoma = test system: M14 melanoma
SK-MEL-2 melanoma = test system: SK-MEL-2 melanoma
NCI-H226 lung = test system: NCI-H226 lung
HCT-116 colon = test system: HCT-116 colon
SK-OV-3 ovarian = test system: SK-OV-3 ovarian
HL-60(TB) leukemia = test system: HL-60(TB) leukemia
MDA-MB-435 = test system: MDA-MB-435
SF-295 CNS = test system: SF-295 CNS
KM12 colon = test system: KM12 colon
SK-MEL-28 melanoma = test system: SK-MEL-28 melanoma
OVCAR-4 ovarian = test system: OVCAR-4 ovarian
EKVX NSCLC = test system: EKVX NSCLC
SNB-19 CNS = test system: SNB-19 CNS
SF-539 CNS = test system: SF-539 CNS
RPMI-8226 leukemia = test system: RPMI-8226 leukemia
SNB-75 CNS = test system: SNB-75 CNS
DU-145 prostate = test system: DU-145 prostate
A549 NSCLC = test system: A549 NSCLC
UO-31 renal = test system: UO-31 renal
MCF7 breast = test system: MCF7 breast
K-562 leukemia = test system: K-562 leukemia
HOP-92 NSCLC = test system: HOP-92 NSCLC
UACC-62 melanoma = test system: UACC-62 melanoma
SR leukemia = test system: SR leukemia
U251 CNS = test system: U251 CNS

COc1ccc(Oc2ccc3cc4c(cc3c2O)OCO4)c2cc(C)oc12
TGI (NCI-H23 lung): > 100 µM | TGI (SK-MEL-5 melanoma): 32.3 µM | TGI (CAKI-1 renal): > 100 µM | TGI (UACC-257 melanoma): 61.1 µM | TGI (RXF 393 renal): 45.1 µM | TGI (SN12C renal): > 100 µM | TGI (HS 578T breast): > 100 µM | TGI (BT-549 breast): 71.4 µM | TGI (A498 renal): > 100 µM | TGI (OVCAR-5 ovarian): > 100 µM | TGI (TK-10 renal): 93.7 µM | TGI (OVCAR-3 ovarian): > 100 µM | TGI (ACHN renal): > 100 µM | TGI (SW-620 colon): > 100 µM | TGI (HCC-2998 colon): 49.8 µM | TGI (SF-268 CNS): > 100 µM | TGI (NCI-H460 lung): 64.3 µM | TGI (HT29 colon): 55.3 µM | TGI (HOP-62 NSCLC): > 100 µM | TGI (NCI/ADR-RES ovarian): 78.8 µM | TGI (MDA-MB-231 breast): > 100 µM | TGI (MALME-3M melanoma): 74.8 µM | TGI (MDA-N): > 100 µM | TGI (NCI-H522 lung): 93.7 µM | TGI (HCT-15 colon): > 100 µM | TGI (T-47D breast): > 100 µM | TGI (LOX IMVI melanoma): 43.9 µM | TGI (CCRF-CEM leukemia): 89.2 µM | TGI (IGROV1 ovarian): > 100 µM | TGI (MOLT-4 leukemia): 65.3 µM | TGI (OVCAR-8 ovarian): > 100 µM | TGI (COLO 205 colon): 72.3 µM | TGI (PC-3 prostate): > 100 µM | TGI (786-0 renal): > 100 µM | TGI (M14 melanoma): 78.9 µM | TGI (SK-MEL-2 melanoma): 47.4 µM | TGI (NCI-H226 lung): 83.8 µM | TGI (HCT-116 colon): > 100 µM | TGI (SK-OV-3 ovarian): > 100 µM | TGI (HL-60(TB) leukemia): 83.9 µM | TGI (MDA-MB-435): 75.1 µM | TGI (SF-295 CNS): > 100 µM | TGI (KM12 colon): > 100 µM | TGI (SK-MEL-28 melanoma): > 100 µM | TGI (OVCAR-4 ovarian): > 100 µM | TGI (EKVX NSCLC): > 100 µM | TGI (SNB-19 CNS): > 100 µM | TGI (SF-539 CNS): > 100 µM | TGI (RPMI-8226 leukemia): 45.2 µM | TGI (SNB-75 CNS): > 100 µM | TGI (DU-145 prostate): > 100 µM | TGI (A549 NSCLC): > 100 µM | TGI (UO-31 renal): > 100 µM | TGI (MCF7 breast): > 100 µM | TGI (K-562 leukemia): 81.4 µM | TGI (HOP-92 NSCLC): 70.1 µM | TGI (UACC-62 melanoma): > 100 µM | TGI (SR leukemia): 93.3 µM

S=C1N=C2C(=N1)n1c3c(c4ccccc41)CCCC23 (configuration not stated)
TGI (NCI-H23 lung): > 100 µM | TGI (SK-MEL-5 melanoma): > 100 µM | TGI (CAKI-1 renal): > 100 µM | TGI (UACC-257 melanoma): > 100 µM | TGI (RXF 393 renal): > 100 µM | TGI (SN12C renal): 72.6 µM | TGI (HS 578T breast): > 100 µM | TGI (BT-549 breast): > 100 µM | TGI (A498 renal): > 100 µM | TGI (OVCAR-5 ovarian): > 100 µM | TGI (TK-10 renal): > 100 µM | TGI (OVCAR-3 ovarian): > 100 µM | TGI (ACHN renal): > 100 µM | TGI (SW-620 colon): > 100 µM | TGI (HCC-2998 colon): > 100 µM | TGI (SF-268 CNS): > 100 µM | TGI (NCI-H460 lung): > 100 µM | TGI (HT29 colon): > 100 µM | TGI (HOP-62 NSCLC): > 100 µM | TGI (NCI/ADR-RES ovarian): > 100 µM | TGI (MDA-MB-231 breast): > 100 µM | TGI (MALME-3M melanoma): > 100 µM | TGI (MDA-N): > 100 µM | TGI (NCI-H522 lung): 63.3 µM | TGI (HCT-15 colon): > 100 µM | TGI (T-47D breast): > 100 µM | TGI (LOX IMVI melanoma): 35.6 µM | TGI (CCRF-CEM leukemia): > 100 µM | TGI (IGROV1 ovarian): > 100 µM | TGI (MOLT-4 leukemia): > 100 µM | TGI (U251 CNS): > 100 µM | TGI (OVCAR-8 ovarian): > 100 µM | TGI (COLO 205 colon): > 100 µM | TGI (PC-3 prostate): > 100 µM | TGI (786-0 renal): 32.9 µM | TGI (M14 melanoma): > 100 µM | TGI (SK-MEL-2 melanoma): > 100 µM | TGI (NCI-H226 lung): > 100 µM | TGI (HCT-116 colon): > 100 µM | TGI (SK-OV-3 ovarian): > 100 µM | TGI (HL-60(TB) leukemia): > 100 µM | TGI (MDA-MB-435): > 100 µM | TGI (SF-295 CNS): > 100 µM | TGI (KM12 colon): > 100 µM | TGI (SK-MEL-28 melanoma): > 100 µM | TGI (OVCAR-4 ovarian): > 100 µM | TGI (EKVX NSCLC): > 100 µM | TGI (SNB-19 CNS): > 100 µM | TGI (SF-539 CNS): > 100 µM | TGI (RPMI-8226 leukemia): 97.5 µM | TGI (SNB-75 CNS): > 100 µM | TGI (DU-145 prostate): > 100 µM | TGI (A549 NSCLC): > 100 µM | TGI (UO-31 renal): > 100 µM | TGI (MCF7 breast): 63.1 µM | TGI (K-562 leukemia): > 100 µM | TGI (HOP-92 NSCLC): > 100 µM | TGI (UACC-62 melanoma): > 100 µM | TGI (SR leukemia): > 100 µM

Source: PubChem BioAssay (NCI)
